Test results as given in patent publication US20240261444A1, “RIGIDIFIED MACROCYCLES, COMPLEXES WITH RADIONUCLIDES, AND USE IN TARGETED RADIOTHERAPY OF CANCER” (Cornell University, priority 2021, published 2024).
Read-outs that look alike come from different tables or passages of the source.

Columns and labels:
[1] = Thermodynamic stability constants of barium complexes by potentiometric titration; details: for pBa (−log [M]free): [M]tot = 10^−6 M, [L]tot = 10^−5 M; for pBa (−log [M]free) / log KBa′ (conditional stability constant): pH 7.4, 25° C., I = 0.1M KCl
Description: Thermodynamic stability studies.
(§1) Potentiometric Titrations. Stability constant measurements were carried out by titrating an aqueous solution (˜15 mL) of ligand (˜1 mM), metal (˜1 mM), and HCl (˜10 mM) with standardized KOH (0.1 M). The ionic strength of the solution was maintained at 0.1 M using KCl. The titration method employed a 0.1 mV/min drift limit with a minimum and maximum wait time of 0 s and 300 s respectively between addition of KOH aliquots (0.015 mL volume increments). No metal hydroxide precipitation was observed within the pH range and concentration employed. […] The stability constants were calculated from the average of three independent titrations (using three independently prepared ligand stock solutions from three independent synthetic preparations of ligands).

[2] = Thermodynamic stability constants of lanthanum complexes by potentiometric titration; details: for pLa (−log [M]free): [M]tot = 10^−6 M, [L]tot = 10^−5 M; for pLa (−log [M]free) / log KLa′ (conditional stability constant): pH 7.4, 25° C., I = 0.1M KCl; for ranking of log KLaL of lanthanum-ligand complexes: equimolar La^3+; for ranking of log KLaL of lanthanum-ligand complexes / stability of complexes with La^3+ (in words): potentiometric titration
Description: Thermodynamic stability studies.
as §1

[3] = Protonation constants by potentiometric titration; assay type: physicochemical; details: I=0.1 M KCl, 25° C.
Description: Potentiometric Titrations. Stability constant measurements were carried out by titrating an aqueous solution (˜15 mL) of ligand (˜1 mM), metal (˜1 mM), and HCl (˜10 mM) with standardized KOH (0.1 M). The ionic strength of the solution was maintained at 0.1 M using KCl. The titration method employed a 0.1 mV/min drift limit with a minimum and maximum wait time of 0 s and 300 s respectively between addition of KOH aliquots (0.015 mL volume increments). […] The titration data within the pH range of 2.2-11.3 were analyzed using Hyperquad2013 software. The stability constants were calculated from the average of three independent titrations (using three independently prepared ligand stock solutions from three independent synthetic preparations of ligands).

[4] = pH 7.4
Description: Thermodynamic stability studies.
as §1

[5] = pH 7.4; remark: listed apart in the source
Description: Thermodynamic stability studies.
as §1

[6] = assay type: physicochemical
Description: H2BZmacropa-NCS Hydrolysis. The stability of BZmacropa-NCS^2— towards hydrolysis was tested as the followings. A solution (1 mL) of H2BZmacropa-NCS (≈1.5 mM) was prepared in 0.1 M Na2CO3/NaHCO3pH 9.1 buffer and stored at room temperature (≈23±1° C.) in a vial covered with aluminum foil. This solution was analyzed periodically by analytical HPLC (method quick-MeCN, 5 μL aliquots) for over a week.

human GPC3 protein = molecular target: T1, human GPC3 protein (Homo sapiens, UniProt P51654); experiment: Binding affinity by bio-layer interferometry (BLI); details: immobilized biotinylated human GPC3, antibody 0-25 nM, global fit
T1 construct: biotin (biotinylated); purchased Acro Biosystems, Newark, DE
Description: Biotinylated human GPC3 protein (Acro Biosystems, Newark, DE) was diluted to 1 μg/mL in assay buffer: 1×PBS with 0.02% Tween-20 and 0.1% acetylated BSA (Electron Microscopy Sciences, Hatfield, PA) in a 96-well plate and loaded onto streptavidin biosensors (ForteBio, Menlo Park, CA). Antibodies were diluted in assay buffer at 4 concentrations from 0-25 nM and loaded into a 96-well plate (final volume of 200 μL). GPC3 was loaded to a density of 0.3 to avoid avidity affects. Reference wells containing buffer only, GPC3-only and antibody only were used as blanks. Plates were run on an Octet Red96 system (FortéBio, Menlo Park, CA) and analyzed with ForteBio Octet Data Analysis software (v.11). […] The combined association and dissociation kinetic data across all concentrations were fit using the global fitting model in the Octet Analysis Studio software.

[7] = assay type: in vivo, mice
Description: Biodistribution. […] At 48 and 96 h post-injection, mice (n=3-4 per time point) were euthanized. Their organs were harvested and weighed, then counted on a gamma counter after allowing 24 h for ^225Ac daughters to equilibrate. The activity in each organ was decay-corrected using a standard of known activity prepared at the same time as the injections. Radiotracer uptake in each organ was calculated by dividing the % injected activity (% IA) in each organ by the organ's weight. Measurement errors are reported as the standard deviation of the % IA/g values (FIGS. 2A-2B).

Compound	log KBaL ([1]; I=0.1 M KCl, 25° C.)	pBa (−log [M]free) [1]	log KLaL ([2]; I=0.1 M KCl, 25° C.)	pLa (−log [M]free) [2]	log KLa′ (conditional stability constant) [2]	log K1 (protonation constant) [3]	log K2 (protonation constant) [3]	log K3 (protonation constant) [3]	log K4 (protonation constant) [3]	log KBaHL ([1]; I=0.1 M KCl, 25° C.)	ranking of log KLaL of lanthanum-ligand complexes [2]	log KBa′ (conditional stability constant) [1]	other results
O=C(O)CN(CCN(CC(=O)O)CC(=O)O)CCN(CC(=O)O)CC(=O)O [DTPA]	8.78	6.15	19.48	16.28		10.34	8.59	4.25	2.71	5.34			log KBa′ (conditional stability constant) [4]: 4.63; log K5 (protonation constant) [3]: 2.18; log KLa′ (conditional stability constant) [5]: 15.32
O=C(O)CN(CCN(CC(=O)O)CC(=O)O)CC(=O)O [EDTA]	7.80	6.28	15.46	13.60	12.65	10.19	6.13	2.69	2.00			4.99	
O=C(O)c1cccc(CN2CCOCCOCCN(Cc3cccc(C(=O)O)n3)CCOc3ccccc3OCC2)n1 [H2BZmacropa, 6,6′-((2,3,5,6,8,9,11,12,14,15-decahydro-4H,13H-benzo[b][1,4,10,13]tetraoxa[7,16]diazacyclooctadecine-4,13-diyl)bis(methylene))dipicolinic acid]	9.09	9.87	13.98			7.06	6.41	3.33	2.49	3.56	H2macropa>H2BZmacropa>H2BZ2macropa	8.91	stability of complexes with La^3+ (in words) [2]: form highly stable complexes with La^3+
O=C(O)c1cccc(CN2CCOCCOCCN(Cc3cc(N=C=S)cc(C(=O)O)n3)CCOCCOCC2)n1 [H2macropa-NCS]													time for complete hydrolysis ([6]; 0.1 M Na2CO3/NaHCO3 pH 9.1 buffer, room temperature): more than a week's time; half-life of hydrolysis of the thiocyanate functional group ([6]; buffer, pH 9.1): 56 h
O=C(O)c1cccc(CN2CCOCCOCCN(Cc3cccc(C(=O)O)n3)CCOCCOCC2)n1 [H2macropa]	11.11	11.69	14.99	15.58	14.63	7.41	6.90	3.23	2.45	3.76	H2macropa>H2BZmacropa>H2BZ2macropa	10.74	log KBaH2L ([1]; I=0.1 M KCl, 25° C.): 2.49; log KLaHL ([2]; I=0.1 M KCl, 25° C.): 2.28
GC33-BZM: "GC33-BZmacropa conjugate"													Kd (human GPC3 protein): 0.19 nM
^225Ac[Ac]-GC33-BZM: "The radioconjugate ^225Ac[Ac]-GC33-BZM"													tumor targeting compared with ^225Ac[Ac]-GC33-M ([7]; mice, intravenous 100 nCi, 48 and 96 h): no significant difference; tumor uptake ([7]; mice, intravenous 100 nCi, 48 and 96 h post-injection): clear, specific tumor uptake at both 48 and 96 h post-injection, with tumor signal greater than that of all organs at both time points; off-target accumulation in liver and femur compared with ^225Ac[Ac]-GC33-M ([7]; mouse, in vivo): higher than that of ^225Ac[Ac]-GC33-M in both the liver and femur at 48 h

Second part, led by results:

log KBaL ([1]; I=0.1 M KCl, 25° C.)	pBa (−log [M]free) [1]	log KLaL ([2]; I=0.1 M KCl, 25° C.)	pLa (−log [M]free) [2]	log KLa′ (conditional stability constant) [2]	log K1 (protonation constant) [3]	log K2 (protonation constant) [3]	log K3 (protonation constant) [3]	log K4 (protonation constant) [3]	log KBaHL ([1]; I=0.1 M KCl, 25° C.)	ranking of log KLaL of lanthanum-ligand complexes [2]	Compound	log KBa′ (conditional stability constant) [1]	other results
11.75	6.76	21.7	16.62	15.67	11.14	9.69	4.85	3.95			O=C(O)CN1CCN(CC(=O)O)CCN(CC(=O)O)CCN(CC(=O)O)CC1 [DOTA]	5.72	
										H2macropa>H2BZmacropa>H2BZ2macropa	O=C(O)c1cccc(CN2CCOc3ccccc3OCCN(Cc3cccc(C(=O)O)n3)CCOc3ccccc3OCC2)n1 [H2BZ2macropa, 6,6′-((6,7,9,10,17,18,20,21-octahydro-8H,19H-dibenzo[b,k][1,4,10,13]tetraoxa[7,16]diazacyclooctadecine-8,19-diyl)bis(methylene))dipicolinic acid]		stability of complexes with La^3+ (in words) [2]: form highly stable complexes with La^3+
